Measured values reported in patent publication US20140275102A1, “Solid State Forms of 6-[4-[3-((R)-2-Methylpyrrolidine-1-yl)-propoxy]phenyl] 2H-pyridazine-3-one Hydrochloride” (Cephalon Inc., priority 2013, published 2014).

Legend:
Type in all cases: physicochemical
[1] = Solid state stress stability at 40° C./75% RH (XRPD, stability-indicating HPLC); settings: for Area Purity (%): 40° C./75% RH, HPLC
Procedure: Powder X-Ray Diffraction patterns were recorded on a PANalytical X Pert Pro diffractometer equipped with an X celerator detector using Cu Kα radiation at 40 kV and 40 mA. Kα1 radiation is obtained with a highly oriented crystal (Ge111) incident beam monochromator. A 10 mm beam mask, and fixed (¼°) divergence and anti-scatter (⅛°) slits were inserted on the incident beam side. A fixed 0.10 mm receiving slit was inserted on the diffracted beam side. […] The sample was spread on silicon zero background (ZBG) plate for the measurement. The sample was rotated at 4°/min on a PANalytical PW3064 Spinner.
Typically 10 μL aliquots of the sample solutions were diluted to 1 mL with acetonitrile and the assay concentrations were determined from an average of duplicate injections using the following HPLC method. The purity and impurity analyses are done using conventional HPLC.
Stress stability studies were performed to assess the influence of temperature and humidity on stability of Forms A1 and H4A1. A stability-indicating HPLC assay method was developed for quantification of Compound 1. The developed method, described above in section VII, is specific, accurate, precise and robust.

[2] = Gravimetric Vapor Sorption (GVS); settings: for Moisture uptake / XRPD analysis of the after GVS sample: GVS 70-0-90% RH
Procedure: Gravimetric Vapor Sorption experiments have been carried out using the DVS-HT instrument (Surface Measurement Systems, London, UK). This instrument measures the uptake and loss of vapor gravimetrically using a recording ultra-microbalance with a mass resolution of ±0.1 μg. […] The desired temperature is maintained at ±0.1° C. […] (3 cycles). The DVS experiment was started at 70% RH (red line) to ensure that there was no moisture loss. The sample was kept at 70% RH for 2 hours. […] After each cycle the moisture uptake decreases to 21, 15, and 2.3% respectively at 90% RH. Significant polymorphic changes were observed by XRPD analysis of the “after GVS” samples.

[3] = Stability to mechanical stress (grinding, XRPD); settings: after thirty minutes of grinding
Procedure: A Wig-1-Bug (Piketech, USA) was used to grind Forms A1 and H-4A1. Each sample (50 mg) was ground for periods of 5, 10, 15 and 30 minutes. Each grinding was carried out in a 2.82 cm^3 container using 0.9 g stainless steel ball ([…]). The vial was swung through a 6.5° arc at 3200 rpm, causing the ball to strike the end of the vial at over 100 Hz.

[4] = Variable temperature XRPD (VT-XRPD)
Procedure: Variable temperature studies were performed with an Anton Paar TTK450 temperature chamber under computer control through an Anton Paar TCU100 temperature control unit. Typically the measurements were done with a nitrogen flow through the camera. Two measurement schemes were used, restricted and continuous. In the restricted mode, measurements were made, only after the TK450 chamber reached the requested temperature. In the continuous mode, the sample was heated at 10° C./minute and fast scans were measured as the temperature changed. After the requested temperature was reached, the sample was cooled at 35° C./minute and a slow scan measured 25° C. The temperatures chosen were based on DSC results. For the diffractometer set-up a 10 mm beam mask, 0.04 radian Soller slits and fixed (1⁄4°) divergence and anti-scatter (1⁄8°) slits were inserted on the incident beam side. A fixed 0.10 mm receiving slit, 0.04 radian Soller slits and a 0.02 mm Nickel filter were inserted on the diffracted beam side. […] A variable temperature study was performed for Form A1 according to the protocol set out in II above.

[5] = Solid-solid transition on storage at controlled humidity, 25° C. (XRPD)
Procedure: Approximately 100 mg of Form A1 was exposed to 100% RH at 25° C. over 1 day. Analysis by XRPD confirmed quantitative conversion of the material to Form […].

C[C@@H]1CCCN1CCCOc1ccc(-c2ccc(=O)[nH]n2)cc1.Cl [Form A1, 6-[4-[3-((R)-2-methylpyrrolidine-1-yl)-propoxy]phenyl]2H-pyridazine-3-one hydrochloride]
Changes on storage as assessed by XRPD ([1]; 4 weeks of storage at 40 degrees C. at 75% relative humidity): No significant changes | Chemical degradation ([1]; 40° C./75% RH after 4 weeks): chemical degradation was not observed | Water uptake from the environment in the solid state ([1]; 40° C./75% RH after 4 weeks): not observed to take up water | Area Purity (%) ([1]; 0 days, hydrochloride): 99.5% | Area Purity (%) ([1]; 7 days, hydrochloride): 99.6% | Area Purity (%) ([1]; 14 days, hydrochloride): 99.7% | Area Purity (%) ([1]; 28 days): 99.5% | Hydrate formation under GVS conditions ([2]; GVS, 0-90% RH cycles): did not appear to form a hydrate | Hygroscopicity (adsorption and desorption curves) ([2]; GVS, 0-90% RH cycles): not hygroscopic | Amount of moisture adsorbed ([2]; GVS, at 90% RH): approximately 1.8% | Amount of moisture adsorbed ([2]; GVS, relative humidity not printed (below 90% RH)): less than 0.8% | XRPD before and after GVS ([2]; after GVS, 0-90% RH cycles): no significant changes after GVS | Change in crystal form on grinding (XRPD) [3]: did not generate a change in crystal form | Crystallinity by XRPD after grinding [3]: crystallinity had been significantly reduced | Solid-solid transformation on heating (VT-XRPD) ([4]; temperature range of 20° C. to 250° C.): No solid-solid transformation was observed | XRPD after exposure to humidity ([5]; 100% RH at 25° C. over 1 day): quantitative conversion of the material to Form H4A1

C[C@@H]1CCCN1CCCOc1ccc(-c2ccc(=O)[nH]n2)cc1.Cl [Form B1, 6-[4-[3-((R)-2-methylpyrrolidine-1-yl)-propoxy]phenyl]2H-pyridazine-3-one hydrochloride]
Temperature at which polymorphic transformation to Form A1 was observed (VT-XRPD) ([4]; Form B1 made by dehydrating Form H4A1 at 25-100° C., 0% RH): 220 °C

C[C@@H]1CCCN1CCCOc1ccc(-c2ccc(=O)[nH]n2)cc1.Cl [Form H4A1, 6-[4-[3-((R)-2-methylpyrrolidine-1-yl)-propoxy]phenyl]2H-pyridazine-3-one hydrochloride]
Area Purity (%) ([1]; 0 days, hydrochloride): 99.6% | Area Purity (%) ([1]; 7 days, hydrochloride): 99.5% | Area Purity (%) ([1]; 14 days, hydrochloride): 99.5% | Area Purity (%) ([1]; 28 days): 99.5% | Physical and chemical stability on storage ([1]; 28 days at 40° C. and 75% RH): physically and chemically stable | Moisture uptake ([2]; at 90% RH, first cycle): 21% | Moisture uptake ([2]; at 90% RH, second cycle): 15% | Moisture uptake ([2]; at 90% RH, third cycle): 2.3% | XRPD analysis of the after GVS sample ([2]; first cycle): mixture of Forms A1 and H4A1 | XRPD analysis of the after GVS sample ([2]; second cycle): mixture of Forms A1 and H4A1 | XRPD analysis of the after GVS sample ([2]; third cycle): Complete conversion of Form H4A1 to Form A1 | XRPD after storage ([5]; 25° C./0% RH for 7 days): quantitative conversion of the material to Form A1
